Target: Solute carrier organic anion transporter family member 1C1
Assay: TP_TRANSPORTER: inhibition of L-T4 uptake in Oatp14-expressing HEK293 cells
Assay type: functional, cell-based

Structure (SMILES)	Ki
N[C@H](Cc1cc(I)c(Oc2cc(I)c(O)c(I)c2)c(I)c1)C(=O)O [DEXTROTHYROXINE]	0.27 µM
C[C@]12CC[C@@H]3c4ccc(O)cc4CC[C@H]3[C@@H]1CC[C@@H]2O[C@@H]1O[C@H](C(=O)O)[C@@H](O)[C@H](O)[C@H]1O [ESTRADIOL 17B GLUCURONIDE]	> 100 µM
C[C@]12CC[C@@H]3c4ccc(OS(=O)(=O)O)cc4CC[C@H]3[C@@H]1CCC2=O [ESTRONE SULFURIC ACID]	53.1 µM
N[C@@H](Cc1cc(I)c(Oc2ccc(O)c(I)c2)c(I)c1)C(=O)O [LIOTHYRONINE]	24.2 µM
CCCN(CCC)S(=O)(=O)c1ccc(C(=O)O)cc1 [PROBENECID]	293 µM
N[C@@H](Cc1ccc(Oc2cc(I)c(O)c(I)c2)c(I)c1)C(=O)O [REVERSE TRIIODOTHYRONINE]	0.91 µM
O=C(O)Cc1cc(I)c(Oc2ccc(O)c(I)c2)c(I)c1 [TIRATRICOL]	2.15 µM

— ChEMBL document CHEMBL2074312, “Involvement of multispecific organic anion transporter, Oatp14 (Slc21a14), in the transport of thyroxine across the blood-brain barrier” (Endocrinology, 2004)
